Assay results from publication PMC13164762, “Development and Validation of an LC-MS/MS Method for the Quantitation of JNJ-64619178 (JNJ) in Mouse Plasma: Characterization of In Vitro and In Vivo Pharmacokinetic Properties” (Molecules, 2026).
Where two headings read alike, the source gives them in different places.

Assays:
[1] = Stability of JNJ in mouse plasma at different storage conditions; assay type: in vitro ADME
Method: The stability of JNJ in mouse plasma was evaluated at three replicates of LQC and HQCs in different storage conditions. Studies were conducted with the study of bench-top stability for 4 h at room temperature, freeze–thaw stability (three freeze–thaw cycles), autosampler stability (4 °C for 48 h) and long-term stability (at −80 °C for 1 month). Samples were considered stable if the % drug remaining after storage conditions was within ±15% compared to the freshly prepared QC samples.

[2] = Rapid equilibrium dialysis (RED) plasma protein binding; assay type: in vitro ADME; conditions: for fraction unbound at 5 h: mouse, plasma
Method: A rapid equilibrium dialysis (RED) protein binding assay was performed to determine the protein binding of JNJ in plasma and brain matrix. The RED plate was obtained from Thermo Fisher Scientific (Frederick, MD, USA) for the experiment. An aliquot (200 µL) of JNJ spiked plasma/brain homogenate was poured into the donor chamber, and 400 µL dialysis buffer-PBS containing 100 mM sodium phosphate and 150 mM sodium chloride was added into the receiver compartment of each RED insert in triplicate. The plate was kept in incubation for 5 h on the orbital shaker at 37 °C. Following incubation, 50 µL plasma and buffer aliquots were collected separately, and an equal volume of opposite matrix was added. Collected samples were processed as previously described in Section 4.6 and analyzed using LC-MS/MS. Degree of protein binding (%) was calculated by the following equation:(6) Protein bound (%)=Concentrationdonor cell−Concentrationreceiver cell/Concentrationdonor cell×100

[3] = Parallel artificial membrane permeability assay (PAMPA); assay type: physicochemical; conditions: 5 µg mL^−1 in PBS, room temperature, read-out: apparent permeability (Papp), PAMPA
Method: A Corning® BioCoat™ Pre-coated PAMPA Plate System, obtained from Corning Life Sciences (Glendale, AZ, USA), was used for the noncell-based permeability assay. As per the manufacturer’s instructions, the PAMPA plate was warmed at room temperature for 30 min to make it ready for use. A JNJ stock solution was prepared in PBS at a concentration of 5 µg mL^−1. Then, 300 µL of that prepared solution was poured into the donor side and 200 µL PBS was added to the acceptor side of each well in triplicate. After incubation for 5 h at room temperature, 50 µL samples were collected separately from the donor and acceptor chamber. Finally, samples were processed following the extraction procedure and analyzed using LC-MS/MS analysis. The apparent permeability coefficient is determined using the following formula:(8) Papp=−ln[1 − Cat/Ceq]/A ∗ 1/Vd + 1/Va∗t where Papp = apparent permeability in cm s^−1, Co = initial compound concentration in donor well (µg mL^−1), Cd(t) = compound concentration in donor well at time t (µg mL^−1), Ca(t) = compound concentration in acceptor well at time t (µg mL^−1), Vd = donor well volume (0.3 mL), Va = acceptor well volume (0.2 mL), A = filter area (0.3 cm^2), and t = incubation time (18,000 s). Ceq is calculated by(9) Ceq=[Cd(t)∗Vd+Ca(t)∗Va] /(Vd+Va)

[4] = Biodistribution and brain penetration after PO dose; assay type: in vivo, balb/c mice; conditions: for concentration at 2 h / concentration at 8 h / concentration at 24 h: po
Method: Mouse plasma and tissue samples (liver, spleen, kidney, lung and brain) were prepared following the SPE procedure. Collected tissues were homogenized using Tissue Lyser II purchased from Qiagen Science, KY, after adding four times as much water as the tissue mass. For calibration standards and QC sample preparation, the 10 µL working stock and IS were spiked into 100 µL mouse plasma or tissue homogenates (liver, spleen, kidney, lung, and brain). After vortexing for 30 s on a Mixmate (Eppendorf North America, Enfield, CT, USA), samples were diluted with 600 µL of 5% formic acid and vortexed again at 1000 rpm for 2 min. Samples were centrifuged at 956× g for 10 min to get a clear sample that was not prone to blocking the cartridge during the SPE. Extraction was initiated by conditioning the cartridge (Oasis HLB 1 cc, Waters, Millford, MA, USA) with 1 mL of methanol, followed by a second conditioning with 1 mL of water. Then, the above-prepared samples were loaded into the cartridge and allowed to pass through the cartridge. Next, the cartridge was washed with 1 mL 15% methanol and dried for 1 min prior to the elution. For final elution, 500 µL 5% ammonium hydroxide in acetonitrile was eluted through the cartridges twice. Collected eluates were dried in a nitrogen dryer and reconstituted with 200 µL of mobile phase. Reconstituted samples were centrifuged at 956× g for 10 min, 150 µL supernatants were collected, and 5 µL was injected for LC-MS/MS.
For the oral PK study, male balb/C mice were grouped into two groups, with n = 4 for each group. Throughout the experiment, mice had free access to adequate food and water. The oral solution comprised 20% (v/v) polyethylene glycol 400, 10% (v/v) propylene glycol, 10% (v/v) ethanol, 2% (v/v) DMSO, 5% cremophore, and water as the rest of the volume. For the IV dose administration, 12 male balb/C mice were used in the study, divided into two groups. The IV solution used the same composition as the oral study. Doses of 10 and 2.5 mg kg^−1 were used for oral and IV routes, respectively. Blood samplings were done at 5 min, 15 min, 30 min, 1 h, 2 h, 4 h, 8 h, and 24 h. After collection, blood samples were centrifuged immediately at 956× g for 10 min, and plasma was separated in an Eppendorf tube and stored at −80 °C until processed. In the oral PK study, tissues—liver, kidney, spleen, lung, and brain—were collected at 2, 8, and 24 h to assess the biodistribution pattern of JNJ in the oral route.

With `Nc1nc2cc(CC[C@H]3C[C@@H](n4ccc5c(N)ncnc54)[C@H](O)[C@@H]3O)ccc2cc1Br` [JNJ, JNJ-64619178] the “% Stability Recoveries (Mean ± SD), Autosampler (4 °C, 48 h)” value ([1]; HQC (375 ng mL^−1)) was 110 ± 6%, the “% Stability Recoveries (Mean ± SD), Bench-Top (RT, 4 h)” value ([1]; HQC (375 ng mL^−1)) was 101 ± 15% and the “% Stability Recoveries (Mean ± SD), Freeze–Thaw (−80 ± 5 °C After 3 Cycle)” value ([1]; HQC (375 ng mL^−1)) was 94 ± 8%. The “% Stability Recoveries (Mean ± SD), Long-Term Stability (−80 ± 5 °C, 30 Days)” value ([1]; HQC (375 ng mL^−1)) was 95 ± 8%, the “% Stability Recoveries (Mean ± SD), Autosampler (4 °C, 48 h)” value ([1]; LQC (0.5 ng mL^−1)) was 110 ± 7% and the “% Stability Recoveries (Mean ± SD), Bench-Top (RT, 4 h)” value ([1]; LQC (0.5 ng mL^−1)) was 91 ± 9%. The “% Stability Recoveries (Mean ± SD), Freeze–Thaw (−80 ± 5 °C After 3 Cycle)” value ([1]; LQC (0.5 ng mL^−1)) was 93 ± 4%, the “% Stability Recoveries (Mean ± SD), Long-Term Stability (−80 ± 5 °C, 30 Days)” value ([1]; LQC (0.5 ng mL^−1)) was 97 ± 9% and the “Plasma Protein Binding (%)” value ([2]; mouse plasma, RED, 5 h, 37 °C, n = 3) was 97 ± 3%. For the same molecule, the fraction unbound at 5 h ([2]; RED, 5 h, 37 °C, n = 3, read-out: Plasma Protein Binding (%)) was < 0.06, the fraction unbound at 5 h ([2]; read-out: fraction unbound in plasma (fu,plasma)) was 0.025 and the Papp at 5 h, 5 µg mL^−1 [3] was 7 ± 4 ×10⁻⁶ cm/s. For the same molecule, the “Brain Content” value ([4]; 2 h after single PO 10 mg kg^−1, balb/c mice, n = 4) was 55 ng/g, the “Brain Content” value ([4]; 8 h after single PO 10 mg kg^−1, balb/c mice, n = 4) was 34 ng/g and the “Brain Content” value ([4]; 24 h after single PO 10 mg kg^−1, balb/c mice, n = 4) was 23 ng/g. The “unbound plasma and brain concentrations/contents, fold lower than in vitro IC50” value ([4]; across all time points, PO 10 mg kg^−1) was “more than 20 fold”, the concentration at 2 h ([4]; male, BALB/c, mouse, brain, 10 mg kg^−1, 2 h, PO 10 mg kg^−1, estimated with fu,brain = 0.057, read-out: Unbound Brain Content) was 3.1 ng/g and the concentration at 2 h ([4]; male, BALB/c, mouse, brain, 10 mg kg^−1, 2 h after single PO 10 mg kg^−1, balb/c mice, n = 4, read-out: Brain Content) was 55 ± 27 ng/g. It also gave a concentration at 8 h ([4]; male, BALB/c, mouse, brain, 10 mg kg^−1, 8 h, PO 10 mg kg^−1, estimated with fu,brain = 0.057, read-out: Unbound Brain Content) of 1.9 ng/g, a concentration at 8 h ([4]; male, BALB/c, mouse, brain, 10 mg kg^−1, 8 h after single PO 10 mg kg^−1, balb/c mice, n = 4, read-out: Brain Content) of 34 ± 1 ng/g and a concentration at 24 h ([4]; male, BALB/c, mouse, brain, 10 mg kg^−1, 24 h, PO 10 mg kg^−1, estimated with fu,brain = 0.057, read-out: Unbound Brain Content) of 1.3 ng/g. The concentration at 24 h ([4]; male, BALB/c, mouse, brain, 10 mg kg^−1, 24 h after single PO 10 mg kg^−1, balb/c mice, n = 4, read-out: Brain Content) was 23 ± 3 ng/g, the concentration at 8 h ([4]; male, BALB/c, mouse, kidney, 10 mg kg^−1, 8 h after single PO 10 mg kg^−1, balb/c mice, n = 4, read-out: Content, Kidney) was 474 ± 131 ng/g and the concentration at 24 h ([4]; male, BALB/c, mouse, kidney, 10 mg kg^−1, 24 h after single PO 10 mg kg^−1, balb/c mice, n = 4, read-out: Content, Kidney) was 56 ± 27 ng/g. The concentration at 8 h ([4]; male, BALB/c, mouse, liver, 10 mg kg^−1, 8 h after single PO 10 mg kg^−1, balb/c mice, n = 4, read-out: Content, Liver) was 1190 ± 167 ng/g, the concentration at 24 h ([4]; male, BALB/c, mouse, liver, 10 mg kg^−1, 24 h after single PO 10 mg kg^−1, balb/c mice, n = 4, read-out: Content, Liver) was 52 ± 31 ng/g and the concentration at 2 h ([4]; male, BALB/c, mouse, lung, 10 mg kg^−1, 2 h after single PO 10 mg kg^−1, balb/c mice, n = 4, read-out: Content, Lung) was 2570 ± 550 ng/g. The concentration at 8 h ([4]; male, BALB/c, mouse, lung, 10 mg kg^−1, 8 h after single PO 10 mg kg^−1, balb/c mice, n = 4, read-out: Content, Lung) was 599 ± 91 ng/g, the concentration at 24 h ([4]; male, BALB/c, mouse, lung, 10 mg kg^−1, 24 h after single PO 10 mg kg^−1, balb/c mice, n = 4, read-out: Content, Lung) was 45 ± 25 ng/g and the concentration at 2 h ([4]; male, BALB/c, mouse, plasma, 10 mg kg^−1, 2 h, PO 10 mg kg^−1, balb/c mice, read-out: Plasma Concentration) was 1470 ng/mL. It also gave a concentration at 2 h ([4]; male, BALB/c, mouse, plasma, 10 mg kg^−1, 2 h, PO 10 mg kg^−1, estimated with fu,plasma = 0.025, read-out: Unbound Plasma Concentration) of 37 ng/mL, a concentration at 8 h ([4]; male, BALB/c, mouse, plasma, 10 mg kg^−1, 8 h, PO 10 mg kg^−1, balb/c mice, read-out: Plasma Concentration) of 93 ng/mL and a concentration at 8 h ([4]; male, BALB/c, mouse, plasma, 10 mg kg^−1, 8 h, PO 10 mg kg^−1, estimated with fu,plasma = 0.025, read-out: Unbound Plasma Concentration) of 2.3 ng/mL. The concentration at 24 h ([4]; male, BALB/c, mouse, plasma, 10 mg kg^−1, 24 h, PO 10 mg kg^−1, balb/c mice, read-out: Plasma Concentration) was 1.6 ng/mL, the concentration at 24 h ([4]; male, BALB/c, mouse, plasma, 10 mg kg^−1, 24 h, PO 10 mg kg^−1, estimated with fu,plasma = 0.025, read-out: Unbound Plasma Concentration) was 0.04 ng/mL and the concentration at 2 h ([4]; male, BALB/c, mouse, spleen, 10 mg kg^−1, 2 h after single PO 10 mg kg^−1, balb/c mice, n = 4, read-out: Content, Spleen) was 1900 ± 220 ng/g. For the same molecule, the concentration at 8 h ([4]; male, BALB/c, mouse, spleen, 10 mg kg^−1, 8 h after single PO 10 mg kg^−1, balb/c mice, n = 4, read-out: Content, Spleen) was 643 ± 58 ng/g, the concentration at 24 h ([4]; male, BALB/c, mouse, spleen, 10 mg kg^−1, 24 h after single PO 10 mg kg^−1, balb/c mice, n = 4, read-out: Content, Spleen) was 95 ± 25 ng/g and the concentration at 2 h ([4]; male, balb/c, mouse, kidney, 10 mg kg^−1, 2 h after single PO 10 mg kg^−1, balb/c mice, n = 4, read-out: Content, Kidney) was 2950 ± 822 ng/g. The concentration at 2 h ([4]; male, balb/c, mouse, liver, 10 mg kg^−1, 2 h after single PO 10 mg kg^−1, balb/c mice, n = 4, read-out: Content, Liver) was 6070 ± 1500 ng/g, the Kp uu at 2 h ([4]; male, mouse, brain, 2 h, PO 10 mg kg^−1, balb/c mice, read-out: Kp,uu,brain (unbound brain-to-plasma partition coefficient)) was 0.08 and the Kp uu at 8 h ([4]; male, mouse, brain, 8 h, PO 10 mg kg^−1, balb/c mice, read-out: Kp,uu,brain (unbound brain-to-plasma partition coefficient)) was 0.82. The Kp uu at 24 h ([4]; male, mouse, brain, 24 h, PO 10 mg kg^−1, balb/c mice, read-out: Kp,uu,brain (unbound brain-to-plasma partition coefficient)) was 33.3.
